# Experimental data published in patent US11602532B2, “Nanoparticle formulations of decoquinate in the form of solid solution” (CAS Lamvac (Guangzhou) Biomedical Technology Co., Ltd., priority 2019, dated 2023).
# Where two headings read alike, the source gives them in different places.
# What was measured:
# Pf3D7 = assay: Malaria SYBR fluorescence (MSF) blood stage assay, Pf3D7; type: cell-based; settings: Plasmodium falciparum, read-out: IC50 (nM) Mean
# Description: (§1) Fifteen different preparations of decoquinate solid solutions as described in Examples were tested in cell culture assays to assess the growth inhibition of blood stage Plasmodium in freshly isolated human blood cells and the growth inhibition of Plasmodium in the liver stage in cell culture of HepG2 cells. The malaria SYBR fluorescence (MSF) assay was performed to detect the parasite DNA of Plasmodium falciparum in late-ring or early-trophozoite stages. […] The intensity of fluorescence generated by the binding of SYBR Green I dye to Plasmodium DNA is quantitatively proportional to the number of parasites. The detailed description of method refers to SOP of the inventors.
# (§2) Chloroquine and artemisinin were used as positive controls in the same experiments.
# pfDd2 = assay: Malaria SYBR fluorescence (MSF) blood stage assay, pfDd2; type: cell-based; settings: Plasmodium falciparum, read-out: IC50 (nM) Mean
# Description: as §1, §2
# Pf803 = assay: Malaria SYBR fluorescence (MSF) blood stage assay, Pf803; type: cell-based; settings: Plasmodium falciparum, read-out: IC50 (nM) Mean
# Description: as §1, §2
# (§3) The HME solid solutions were treated with alkaline buffer (pH 9), or with high temperature (60° C.) or with high humidity (92%) for 5 or 10 days respectively and then used for testing decoquinate inhibitory effects in in vitro blood stage experiments using freshly prepared red blood cells infected with Plasmodium Pf803 or PfB12D9. The base pH was neutralized by dialysis of decoquinate HME samples before used in cell culture experiments.
# pfB74F6 (PS) = assay: Malaria SYBR fluorescence (MSF) blood stage assay, pfB74F6; type: cell-based; settings: Plasmodium falciparum, read-out: IC50 (nM) Mean
# Description: as §1, §2
# pfB47D6 (PS) = assay: Malaria SYBR fluorescence (MSF) blood stage assay, pfB47D6; type: cell-based; settings: Plasmodium falciparum, read-out: IC50 (nM) Mean
# Description: as §1, §2
# pfB64G11 (PS) = assay: Malaria SYBR fluorescence (MSF) blood stage assay, pfB64G11; type: cell-based; settings: Plasmodium falciparum, read-out: IC50 (nM) Mean
# Description: as §1, §2
# pfB74C4 (PS) = assay: Malaria SYBR fluorescence (MSF) blood stage assay, pfB74C4; type: cell-based; settings: Plasmodium falciparum, read-out: IC50 (nM) Mean
# Description: as §1, §2
# pfB12D9 (PS) = assay: Malaria SYBR fluorescence (MSF) blood stage assay, pfB12D9; type: cell-based; settings: Plasmodium falciparum, read-out: IC50 (nM) Mean
# Description: as §1
# Table 6 is the results showing in vitro antimalarial potency of decoquinate HME formulations prepared from Example 8 (F8) and Example 15 (F15). […] Chloroquine and artemisinin were used as positive controls in the same experiments.
# as §3
# [1] = HPLC analysis of decoquinate after HME, acid or alkaline treatment; type: physicochemical; settings: treated with pH 1.2 solution for 2 days
# Description: Samples are dialyzed against distilled water, diluted and analyzed with the established method. […] Differential scanning calorimetry (DSC) analysis and X-ray diffraction analysis were performed for the selected formulations in the Examples described above.
# [2] = system: Plasmodium berghei ANKA 868 expressing luciferase; assay: Inhibition of liver stage development assay (ILSDA) in HepG2 cells; type: cell-based; settings: HepG2, read-out: PQ Mean (IC50)
# Description: For the inhibition of liver stage development assay (ILSDA), HepG2 liver cells were cultured with Plasmodium berghei sporozoite expressing firefly luciferase in the presence of a series of dilutions of test compound. In the case of formulations, the compound concentration was determined by the quantitation of HPLC. […] The culture was maintained in microtiter plates for 48 hours after sporozoite invasion and intracellular proliferation of P. berghei parasites in HepG2 cells. The growth inhibition of the parasites by the test compound or the compound complexed with the excipients was determined by measuring the luminescent intensity produced by the process of luciferase catalyzing the substrates which were added by the end of incubation.
# The experiments were carried out on HepG2 cells incubated with the sporozoites isolated from salivary glands of infected mosquitoes. […] The results were expressed by the half maximal inhibition concentration (IC50).
# [3] = system: Plasmodium berghei ANKA (Pb 868 sporozoites); assay: Causal prophylactic efficacy against sporozoite inoculation in NIH-Swiss female mice; type: in vivo
# Description: The NIH-Swiss female mice used for the experiment were raised for at least 7 days after arrival. At the start of the experiment, the mice were 7 weeks old. Only one mouse was housed in each cage and maintained in a room with a temperature range of 18 to 26° C. with a relative humidity of 34% to 68% in a 12/12h light-dark cycle. Food and water were provided ad libitum during quarantine and throughout the study. This experiment was carried out in strict accordance with the relevant animal testing regulations (the Chinese State Council's Laboratory Animal Management Regulations, Revised Mar. 1, 2017). The decoquinate suspension used in the animal experiment was from the product of Examples 2, 8, 9, 11, 12 and 15 (F2, F8, F9, F11, F12 and F15), prepared with saline and subjected to ultrasonic treatment for 5 minutes. Each animal experiment was repeated at least three times with a group of 5 each time, so that at least 15 mice were tested in each group. The mice were inoculated with Plasmodium parasites by an injection of 50,000 sporozoites of Plasmodium berghei ANKA (Pb 868 sporozoites) through the tail vein of each mouse. Testing compound or formulation compound was administered to mice by PO (oral administration, by the manually intragastric method) the day before, the day of, and the next day after Plasmodium inoculation. The formulation compound suspended in saline were quantitated by HPLC method before dosing animals. The positive control was primaquine, an antimalarial drug used for the liver-stage Plasmodium. The vehicle control was the components used in the solid dispersion of decoquinate other than decoquinate. No anti-malarial activity was found with the vehicle control, the results of which were consistent with those obtained by using only saline as a negative control. The detection of Plasmodium parasitemia was performed as follows: a conventional method was used to count red blood cells per mm^3 of blood in that a thin film of blood was prepared and stained with 3% Giemsa for 20 minutes; and then the number of infected red blood cells per 1000 red blood cells was counted under oil microscope to obtain erythrocyte infected rate (EIR, ‰). If the parasites were not seen in the thin film, the thick film was prepared for detection of parasites and the results expressed as the parasite number per 100 white blood cells (WBC). Survival rates were calculated on day 60 post-infection for the still live mice versus the dead mice.
# […] The results shown were the number of infected mice on day 12 from the microscopic detection of parasites of thin or thick films. The results also include the protection rate on day 12 and survival rate on day 60. The products from F8, F9, F11 and F15 have 100% survival rates whereas PQ, F2 and F12 have survival rates of 80%.
# Table 8 illustrates efficacy studies of the HME compositions prepared in various examples in mice infected with Plasmodium berghei expressing luciferase; wherein decoquinate given to animals at a dose of 5 mg per kg was in the saline suspension of F2, F8, F9, F11, F12, and […] HME preparations; the saline group as a negative control; PQ represents the primaquine group used as a positive control at a dose of 30 mg per kg body weight. […] Protection rates were calculated according to the data of parasitemia detection in mice on day 12 of Plasmodium sporozoite inoculation and the survival rates in each group on day 60 post the sporozoite inoculation.
# [4] = primaquine 20 mg/kg (table), intragastric, 3 daily doses, 5 mice per group
compound,measurement,setting,value
C[C@@H]1CC[C@H]2[C@@H](C)C(=O)O[C@@H]3O[C@@]4(C)CC[C@@H]1[C@]32OO4 [Artemisinin],IC50,"Pf3D7; blood stage, Pf3D7, 72h",23.1 nM
same,IC50,"pfDd2; blood stage, pfDd2 (multidrug resistance including chloroquine), 72h",26 nM
same,IC50,"Pf803; blood stage, Pf803 (chloroquine resistance), 72h",32 nM
same,IC50,"pfB74F6 (PS); blood stage, pfB74F6, sample collected from patients",14.5 nM
same,IC50,"pfB47D6 (PS); blood stage, pfB47D6, sample collected from patients",25.4 nM
same,IC50,"pfB64G11 (PS); blood stage, pfB64G11, sample collected from patients",6.66 nM
same,IC50,"pfB74C4 (PS); blood stage, pfB74C4, sample collected from patients",26.4 nM
same,IC50,pfB12D9 (PS),24.1 nM
CCN(CC)CCCC(C)Nc1ccnc2cc(Cl)ccc12 (centres unmarked) [Chloroquine],IC50,Pf3D7; 72 h,57.5 nM
same,IC50,pfDd2; 72 h,244 nM
same,IC50,Pf803; 72 h,957 nM
same,IC50,pfB74F6 (PS),79.2 nM
same,IC50,pfB47D6 (PS),78.2 nM
same,IC50,pfB64G11 (PS),30.4 nM
same,IC50,pfB74C4 (PS),59.3 nM
same,IC50,pfB12D9 (PS),63.3 nM
"CCCCCCCCCCOc1cc2c(O)c(C(=O)OCC)cnc2cc1OCC [Decoquinate, ethyl-6-decyloxy-7-ethoxy-4-hydroxyquinoline-3-carboxylate]",peak pattern and retention time of decoquinate in HPLC,[1],change in the peak pattern and the shift in the retention time
"COc1cc(NC(C)CCCN)c2ncccc2c1 (centres unmarked) [PQ, primaquine]",IC50,[2],1730 nM
same,survival rate,"[3]; 30 mg primaquine per kg body weight, day 60",80%
same,Infected (Day 12),[3]; [4],2
same,Protected rate (Day 12),[3]; [4],60
same,Survival rate (Day 32),[3]; [4],80%
same,Survived (Day 32),[3]; [4],4
